Where two headings read alike, the source gives them in different places. Starred links: 1 amine or outer side, 2 acyl side, 3 side chain; linkers in the order of their positions; H or OH if unused. Non-standard residues stand in square brackets, D forms with d. Residues, ends and D or L forms follow the SMILES beside them. X10 = C[C@H](CCCOC(=O)NC1CCN(C)CC1)[C@@H](C(=O)[*:2])N(C)[*:1]; X56 = CCN1CCN(C(=O)OC[C@@H](C)[C@@H](C(=O)[*:2])N(C)[*:1])CC1; X78 = CC(C)N1CCN(CCOC[C@@H](C)[C@@H](C(=O)[*:2])N(C)[*:1])CC1; X1 = COC[C@@H]1CN(C[C@H](C)[C@@H](C(=O)[*:2])N(C)[*:1])CCO1; X29 = CC(=O)N1CCN(C[C@@H](C)[C@@H](C(=O)[*:2])N(C)[*:1])CC1; X22 = C[C@H](CN1CCN(C2CCC2)CC1)[C@@H](C(=O)[*:2])N(C)[*:1]; NMe(dihydroBmt) = CCCC[C@@H](C)[C@@H](O)[C@H](NC)C(=O)O; X17 = C[C@H](COCC(C)(C)O)[C@@H](C(=O)[*:2])N(C)[*:1]; X9 = C[C@@H](CN1CCOCC1)[C@@H](C(=O)[*:2])N(C)[*:1]; MeBmt = C/C=C/C[C@@H](C)[C@@H](O)[C@H](NC)C(=O)O; NMeL = CN[C@@H](CC(C)C)C(=O)O; NMeV = CN[C@H](C(=O)O)C(C)C; dNMeA = CN[C@H](C)C(=O)O; Abu = CC[C@H](N)C(=O)O
How the values were obtained:
cyclophilin B (CypB) = cyclophilin B (CypB) (Homo sapiens (Human), UniProt P23284); assay: Inhibitor binding to cyclophilin proteins by SPR, CypB; set-up: unit not given here; details: 1:1 binding model
Sequence of cyclophilin B (CypB) (P23284 34-216): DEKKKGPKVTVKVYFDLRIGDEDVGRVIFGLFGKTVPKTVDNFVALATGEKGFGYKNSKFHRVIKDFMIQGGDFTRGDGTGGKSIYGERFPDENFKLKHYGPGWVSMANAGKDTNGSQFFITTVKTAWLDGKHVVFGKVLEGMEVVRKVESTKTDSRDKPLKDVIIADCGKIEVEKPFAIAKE
Outline: (§1)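 Mono-biotinylated avi-tagged cyclophilins captured on a Biotin CAPture chip. Single-cycle kinetics at 50 μL/min, 1 min contacts, 10 min final dissociation, in 10 mM HEPES pH 7.4, 150 mM NaCl, 0.05% P20, 3% DMSO. kon, koff and KD from a 1:1 binding model.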

[1] = test system: genotype 1b subgenomic HCV replicon in Huh7.5 cells; type: cell-based, hepatitis C virus; details: read-out: RPLN-1b IC50
Outline: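 Replicon inhibition read as renilla luciferase signal versus DMSO controls after 72 h incubation, in Huh7.5 cells harbouring a genotype 1b subgenomic replicon; medium phenol red-free DMEM lacking G418. CC50 determined in parallel via Cell Titer-Glo.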

cyclophilin A (CypA) = cyclophilin A (CypA) (Homo sapiens (Human), UniProt P62937); assay: Inhibitor binding to cyclophilin proteins by SPR, CypA; set-up: unit not given here; details: 1:1 binding model;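 note: Single-cycle kinetics on a Biacore T200, compound injected at several concentrations for 1 min each at 50 µL/min, then 10 min dissociation, in HEPES pH 7.4 buffer with 3% DMSO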
Sequence of cyclophilin A (CypA) (P62937 whole entry): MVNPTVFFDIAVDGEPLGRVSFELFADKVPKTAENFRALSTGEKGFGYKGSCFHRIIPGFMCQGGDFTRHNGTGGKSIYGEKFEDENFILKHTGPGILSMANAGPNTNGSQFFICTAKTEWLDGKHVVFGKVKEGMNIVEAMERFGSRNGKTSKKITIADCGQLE

CypF = CypF (Homo sapiens (Human), UniProt P30405); assay: Inhibitor binding to cyclophilin proteins by SPR, CypF; details: 1:1 binding model
Sequence of CypF (P30405 30-207): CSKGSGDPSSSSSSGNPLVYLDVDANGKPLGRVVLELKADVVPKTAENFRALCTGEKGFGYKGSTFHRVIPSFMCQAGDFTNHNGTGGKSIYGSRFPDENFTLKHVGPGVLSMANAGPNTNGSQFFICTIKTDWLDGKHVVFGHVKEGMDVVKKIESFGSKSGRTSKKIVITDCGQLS
Outline: as §1

[2] = test system: peripheral blood mononuclear cells (PBMC); assay: Anti-proliferative or immunosuppressive activity, BrdU incorporation in PHA-stimulated PBMC; type: cell-based; details: PHA 3 μg/ml, 60 hour compound treatment; read-out: EMV PBMC IC50
Outline: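 BrdU ELISA read-out of DNA synthesis in freshly isolated PBMCs (two donors, 30,000 cells/well, X-VIVO 15). T-cell proliferation triggered with phytohemagglutinin at 3 μg/ml.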

CYP3A4 = CYP3A4 (Homo sapiens (Human), UniProt P08684); assay: Time-dependent inhibition of CYP3A4;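 note: Two-step in vitro assay, kobs derived from residual CYP3A4 activity versus preincubation time per concentration, then kinact and KI by nonlinear fit of kobs against concentration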
Sequence of CYP3A4 (P08684 whole entry): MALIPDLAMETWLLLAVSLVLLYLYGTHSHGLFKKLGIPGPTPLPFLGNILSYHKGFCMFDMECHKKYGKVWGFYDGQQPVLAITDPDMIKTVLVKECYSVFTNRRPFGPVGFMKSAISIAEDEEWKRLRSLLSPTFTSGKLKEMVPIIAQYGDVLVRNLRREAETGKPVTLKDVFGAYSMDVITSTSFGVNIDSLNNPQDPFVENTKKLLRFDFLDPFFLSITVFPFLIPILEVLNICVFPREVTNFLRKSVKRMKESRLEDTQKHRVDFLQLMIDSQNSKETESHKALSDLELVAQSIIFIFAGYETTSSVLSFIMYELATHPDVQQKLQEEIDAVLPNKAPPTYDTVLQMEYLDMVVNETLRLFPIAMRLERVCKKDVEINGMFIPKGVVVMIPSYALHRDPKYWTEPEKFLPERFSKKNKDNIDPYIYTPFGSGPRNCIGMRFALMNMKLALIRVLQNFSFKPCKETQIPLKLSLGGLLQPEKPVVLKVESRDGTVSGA

[3] = target: organic anion transporting polypeptide 1B1 (OATP1B1) (Homo sapiens (Human), UniProt Q9Y6L6); assay: OATP assay in CHO-OATP1B1 cells;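 note: inhibition of probe substrate uptake into the cells, ten minutes exposure, accumulated substrate read by fluorescence once cells were lysed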
Sequence of organic anion transporting polypeptide 1B1 (OATP1B1) (Q9Y6L6 whole entry): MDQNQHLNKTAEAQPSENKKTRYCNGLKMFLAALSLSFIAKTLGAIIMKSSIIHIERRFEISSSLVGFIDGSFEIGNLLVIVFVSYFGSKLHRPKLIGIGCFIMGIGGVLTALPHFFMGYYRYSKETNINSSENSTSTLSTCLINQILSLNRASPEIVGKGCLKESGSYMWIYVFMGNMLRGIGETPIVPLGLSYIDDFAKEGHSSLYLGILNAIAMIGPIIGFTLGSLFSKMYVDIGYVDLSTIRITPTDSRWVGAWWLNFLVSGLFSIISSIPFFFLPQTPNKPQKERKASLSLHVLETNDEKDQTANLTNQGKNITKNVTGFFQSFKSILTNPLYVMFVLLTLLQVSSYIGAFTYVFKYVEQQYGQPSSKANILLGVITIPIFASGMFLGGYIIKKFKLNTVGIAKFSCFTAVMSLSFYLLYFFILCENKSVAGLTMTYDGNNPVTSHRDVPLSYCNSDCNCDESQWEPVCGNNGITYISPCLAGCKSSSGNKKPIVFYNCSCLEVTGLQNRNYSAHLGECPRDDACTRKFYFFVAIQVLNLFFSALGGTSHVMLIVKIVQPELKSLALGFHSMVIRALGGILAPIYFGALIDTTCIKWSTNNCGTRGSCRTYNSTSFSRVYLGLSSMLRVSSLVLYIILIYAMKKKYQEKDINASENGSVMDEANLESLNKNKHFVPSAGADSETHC

[4] = genotype 1b replicon, 72 h incubation

Compound: C/C=C/C[C@@H](C)[C@@H](O)[C@H]1C(=O)N[C@@H](CC)C(=O)N(C)[C@H](C)C(=O)N(C)[C@@H]([C@H](C)CCN2CCOCC2)C(=O)N[C@@H](C(C)C)C(=O)N(C)[C@@H](CC(C)C)C(=O)N[C@@H](C)C(=O)N[C@H](C)C(=O)N(C)[C@@H](CC(C)C)C(=O)N(C)[C@@H](CC(C)C)C(=O)N(C)[C@@H](C(C)C)C(=O)N1C (stereo in doubt) [Compound 2.18.1, 3-[D-Ala]-4-[(2S,3R)-3-methyl-2-(methylamino)-5-morpholinopentanoyl]-cyclosporin]
- CypB Kd (cyclophilin B (CypB)): 0.8
- IC50 [1, 4]: 0.022 µM
- CypA Kd (cyclophilin A (CypA)): 1.5
- CypF Kd (CypF): 0.0009 µM
- IC50 [2]: 16.2 µM
- Ki (CYP3A4): > 50 µM

Compound: C/C=C/C[C@@H](C)[C@@H](O)[C@H]1C(=O)N[C@@H](CC)C(=O)N(C)[C@H](CCCN2CCOCC2)C(=O)N(C)[C@@H]([C@H](C)CS(C)(=O)=O)C(=O)N[C@@H](C(C)C)C(=O)N(C)[C@@H](CC(C)C)C(=O)N[C@@H](C)C(=O)N[C@H](C)C(=O)N(C)[C@@H](CC(C)C)C(=O)N(C)[C@@H](CC(C)C)C(=O)N(C)[C@@H](C(C)C)C(=O)N1C (stereo in doubt) [Compound 3.4.2, 3-[(R)-2-(methylamino)-5-morpholinopentanoyl]-4-[(2S,3S)-3-methyl-2-(methylamino)-4-(methylsulfonyl)butanoyl]-cyclosporin]
- CypB Kd (cyclophilin B (CypB)): 4.4
- IC50 [1, 4]: 1.3 µM
- CypA Kd (cyclophilin A (CypA)): 8.7
- CypF Kd (CypF): 0.005 µM
- IC50 [2]: 13.8 µM
- Ki (CYP3A4): > 50 µM

Compound: CCCC[C@@H](C)[C@@H](O)[C@H]1C(=O)N[C@@H](CC)C(=O)N(C)[C@H](C)C(=O)N(C)[C@@H]([C@H](C)CN2CCN(C3CCC3)CC2)C(=O)N[C@@H](C(C)C)C(=O)N(C)[C@@H](CC(C)C)C(=O)N[C@@H](C)C(=O)N[C@H](C)C(=O)N(C)[C@@H](CC(C)C)C(=O)N(C)[C@@H](CC(C)C)C(=O)N(C)[C@@H](C(C)C)C(=O)N1C [Compound 2.5.15, 1-dihydro-3-[D-Ala]-4[(2S,3R)-2-Amino-4-(4-cyclobutyl-piperazin-1-yl)-butanoyl]-cyclosporin] (cyclo([NMe(dihydroBmt)][Abu][dNMeA][X22]V[NMeL]A[dA][NMeL][NMeL][NMeV]))
- CypB Kd (cyclophilin B (CypB)): 0.7
- IC50 [1]: 0.018 µM
- CypA Kd (cyclophilin A (CypA)): 1.4
- CypF Kd (CypF): 0.0006 µM
- IC50 [2]: 7.6 µM
- KI (inactivation) (CYP3A4): > 50 µM

Compound: C/C=C/C[C@@H](C)[C@@H](O)[C@H]1C(=O)N[C@@H](CC)C(=O)N(C)[C@H](C)C(=O)N(C)[C@@H]([C@H](C)COCC(C)(C)O)C(=O)N[C@@H](C(C)C)C(=O)N(C)[C@@H](CC(C)C)C(=O)N[C@@H](C)C(=O)N[C@H](C)C(=O)N(C)[C@@H](CC(C)C)C(=O)N(C)[C@@H](CC(C)C)C(=O)N(C)[C@@H](C(C)C)C(=O)N1C [Compound 2.7, 3-[D-Ala]-4-[(2S,3S)-4-(2-hydroxy-2-methylpropoxy)-3-methyl-2-(methylamino)butanoyl]-cyclosporin] (cyclo(A[dA][NMeL][NMeL][NMeV][MeBmt][Abu][dNMeA][X17]V[NMeL]))
- CypB Kd (cyclophilin B (CypB)): 1.2
- CypA Kd (cyclophilin A (CypA)): 2.5
- CypF Kd (CypF): 0.0009 µM
- IC50 [3]: 1.8 µM
- NIM TDI kinact/Ki (CYP3A4; probe substrate midazolam): 25 M⁻¹ s⁻¹

Compound: CCCC[C@@H](C)[C@@H](O)[C@H]1C(=O)N[C@@H](CC)C(=O)N(C)[C@H](C)C(=O)N(C)[C@@H]([C@@H](C)CN2CCOCC2)C(=O)N[C@@H](C(C)C)C(=O)N(C)[C@@H](CC(C)C)C(=O)N[C@@H](C)C(=O)N[C@H](C)C(=O)N(C)[C@@H](CC(C)C)C(=O)N(C)[C@@H](CC(C)C)C(=O)N(C)[C@@H](C(C)C)C(=O)N1C [Compound 2.17.7, 1-dihydro-3-[D-Ala]-4[(2S,3S)-2-Amino-3-methyl-4-morpholin-4-yl-butanoyl]-cyclosporin] (cyclo(A[dA][NMeL][NMeL][NMeV][NMe(dihydroBmt)][Abu][dNMeA][X9]V[NMeL]))
- CypB Kd (cyclophilin B (CypB)): 0.7
- IC50 [1, 4]: 0.015 µM
- CypA Kd (cyclophilin A (CypA)): 1.5
- CypF Kd (CypF): 0.0007 µM
- Ki (CYP3A4): > 50 µM

Compound: C/C=C/C[C@@H](C)[C@@H](O)[C@H]1C(=O)N[C@@H](CC)C(=O)N(C)[C@H](C)C(=O)N(C)[C@@H]([C@@H](C)CN2CCO[C@H](COC)C2)C(=O)N[C@@H](C(C)C)C(=O)N(C)[C@@H](CC(C)C)C(=O)N[C@@H](C)C(=O)N[C@H](C)C(=O)N(C)[C@@H](CC(C)C)C(=O)N(C)[C@@H](CC(C)C)C(=O)N(C)[C@@H](C(C)C)C(=O)N1C [Compound 2.17.8, 3-[D-Ala]-4[(2S,3S)-2-Amino-4-((S)-2-methoxymethyl-morpholin-4-yl)-3-methyl-butanoyl]-cyclosporin] (cyclo(A[dA][NMeL][NMeL][NMeV][MeBmt][Abu][dNMeA][X1]V[NMeL]))
- CypB Kd (cyclophilin B (CypB)): 0.7
- IC50 [1, 4]: 0.022 µM
- CypA Kd (cyclophilin A (CypA)): 1.2
- CypF Kd (CypF): 0.0006 µM
- IC50 [2]: 36.4 µM
- Ki (CYP3A4): > 50 µM

Compound: C/C=C/C[C@@H](C)[C@@H](O)[C@H]1C(=O)N[C@@H](CC)C(=O)N(C)[C@H](C)C(=O)N(C)[C@@H]([C@H](C)CCCOC(=O)NC2CCN(C)CC2)C(=O)N[C@@H](C(C)C)C(=O)N(C)[C@@H](CC(C)C)C(=O)N[C@@H](C)C(=O)N[C@H](C)C(=O)N(C)[C@@H](CC(C)C)C(=O)N(C)[C@@H](CC(C)C)C(=O)N(C)[C@@H](C(C)C)C(=O)N1C [Compound 2.19.8, 3-[D-Ala]-4-[(2S,3R)-3-methyl-2-(methylamino)-6-(((1-methylpiperidin-4-yl)carbamoyl)oxy)hexanoyl]-cyclosporin] (cyclo(A[dA][NMeL][NMeL][NMeV][MeBmt][Abu][dNMeA][X10]V[NMeL]))
- CypB Kd (cyclophilin B (CypB)): 0.4
- CypA Kd (cyclophilin A (CypA)): 0.8
- CypF Kd (CypF): 0.0004 µM
- IC50 [3]: 7.8 µM
- Ki (CYP3A4): > 50 µM

Compound: C/C=C/C[C@@H](C)[C@@H](O)[C@H]1C(=O)N[C@@H](CC)C(=O)N(C)[C@H](C)C(=O)N(C)[C@@H]([C@H](C)COCCN2CCN(C(C)C)CC2)C(=O)N[C@@H](C(C)C)C(=O)N(C)[C@@H](CC(C)C)C(=O)N[C@@H](C)C(=O)N[C@H](C)C(=O)N(C)[C@@H](CC(C)C)C(=O)N(C)[C@@H](CC(C)C)C(=O)N(C)[C@@H](C(C)C)C(=O)N1C [Compound 2.8.5, 3-[D-Ala]-4-[(2S,3S)-4-(2-(4-isopropylpiperazin-1-yl)ethoxy)-3-methyl-2-(methylamino)butanoyl]-cyclosporin] (cyclo(A[dA][NMeL][NMeL][NMeV][MeBmt][Abu][dNMeA][X78]V[NMeL]))
- CypB Kd (cyclophilin B (CypB)): 0.5
- IC50 [1, 4]: 0.0989 µM
- CypA Kd (cyclophilin A (CypA)): 0.6
- CypF Kd (CypF): 0.0004 µM
- IC50 [3]: 4.4 µM
- IC50 [2]: 8.1 µM

Compound: C/C=C/C[C@@H](C)[C@@H](O)[C@H]1C(=O)N[C@@H](CC)C(=O)N(C)[C@H](C)C(=O)N(C)[C@@H]([C@H](C)COC(=O)N2CCN(CC)CC2)C(=O)N[C@@H](C(C)C)C(=O)N(C)[C@@H](CC(C)C)C(=O)N[C@@H](C)C(=O)N[C@H](C)C(=O)N(C)[C@@H](CC(C)C)C(=O)N(C)[C@@H](CC(C)C)C(=O)N(C)[C@@H](C(C)C)C(=O)N1C [Compound 2.5.24, 3-[D-Ala]-4-[(2S,3S)-4-((4-ethylpiperazine-1-carbonyl)oxy)-3-methyl-2-(methylamino)butanoyl]-cyclosporin] (cyclo(A[dA][NMeL][NMeL][NMeV][MeBmt][Abu][dNMeA][X56]V[NMeL]))
- CypB Kd (cyclophilin B (CypB)): 0.3
- IC50 [1, 4]: 0.023 µM
- CypA Kd (cyclophilin A (CypA)): 0.5
- CypF Kd (CypF): 0.0003 µM
- IC50 [3]: 1.9 µM
- IC50 [2]: 3.6 µM

Compound: C/C=C/C[C@@H](C)[C@@H](O)[C@H]1C(=O)N[C@@H](CC)C(=O)N(C)[C@H](C)C(=O)N(C)[C@@H]([C@H](C)CN2CCN(C(C)=O)CC2)C(=O)N[C@@H](C(C)C)C(=O)N(C)[C@@H](CC(C)C)C(=O)N[C@@H](C)C(=O)N[C@H](C)C(=O)N(C)[C@@H](CC(C)C)C(=O)N(C)[C@@H](CC(C)C)C(=O)N(C)[C@@H](C(C)C)C(=O)N1C [Compound 2.5.23, 3-[D-Ala]-4-[(2S,3R)-4-(4-acetylpiperazin-1-yl)-3-methyl-2-(methylamino)butanoyl]-cyclosporin] (cyclo(A[dA][NMeL][NMeL][NMeV][MeBmt][Abu][dNMeA][X29]V[NMeL]))
- CypB Kd (cyclophilin B (CypB)): 0.7
- IC50 [1, 4]: 0.047 µM
- CypA Kd (cyclophilin A (CypA)): 1.6
- CypF Kd (CypF): 0.0008 µM
- IC50 [3]: 2.3 µM
- IC50 [2]: 22.8 µM

— US9566312B2, “Cyclic peptides and use as medicines” (priority 2012, dated 2017)
